Results taken from article PMC7177633, “Effective Cellular Transport of Ortho-Halogenated Sulfonamide Derivatives of Metformin Is Related to Improved Antiproliferative Activity and Apoptosis Induction in MCF-7 Cells” (International Journal of Molecular Sciences, 2020).
Values joined by “and” are separate entries in the source; they are usually repeats but may differ in a detail not shown here. Identical values can stand only once. Like-named read-outs stand apart in the source and are kept apart here.

Key:
[1] = tested on: OCTs; experiment: Inhibition of [14C]choline uptake in MCF-7 cells (competitive inhibition assay); format: cell-based, human; details: mean ± SD (n = 3)
Experimental: (§1) The following day, after removal of the culture medium, the cells were carefully washed with prewarmed HBSS (Hanks’ balanced salt solution) containing 125 mM NaCl, 4.8 mM KCl, 1.2 mM MgSO4, 1.2 mM KH2PO4, 1.3 mM CaCl2, 5.6 mM glucose and 25 mM HEPES (pH 7.4). […] Then, the cells were washed three times with ice-cold HBSS (500 μL) and were lysed with 250 μL of 0.1-M NaOH in the ice bath, and the lysate was mixed with 1.0 mL of an emulsifier safe cocktail (PerkinElmer, Waltham, MA, USA). The radioactivity was measured by liquid scintillation counting (MicroBeta^2 counter, PerkinElmer, Waltham, MA, USA). The studies were carried out with the use of at least three replicates from the same cell passage.

[2] = tested on: OCTs; experiment: Inhibition of [14C]choline uptake in MDA-MB-231 cells (competitive inhibition assay); format: cell-based, human; details: mean ± SD (n = 3)
Experimental: as §1

[3] = tested on: MCF-7 cells; experiment: Cellular uptake of metformin sulfonamides in MCF-7 cells (HPLC); format: in vitro ADME, human; details: for uptake into MCF-7 cells: 10 min incubation, 37 °C
Experimental: (§2) The uptake of metformin sulfonamides (1–9) in MCF-7 and MDA-MB-231 cells was studied by incubation of the cells with 10−3000 μmol/L of compounds in 250 μL of prewarmed HBSS buffer at 37 °C for 10 min. Subsequently, the cells were then washed three times with 500 μL of ice-cold HBSS and lysed with 250 μL of 0.1-M NaOH. The samples were collected, centrifuged (5 min, 1400 rpm) and the supernatants were analyzed by the HPLC method. The concentration of each compound in the cells was calculated on the basis of the standard curve prepared by spiking known amounts of every compound on the cell layers in 250 μL of 0.1-M NaOH.
(§3) The concentration of the studied sulfonamides (1–9) was assessed using the HPLC system, consisting of an Agilent 1100 binary pump (Agilent Technologies Inc., Wilmington, DE, USA), an 1100 micro-vacuum degasser, an HP 1050 autosampler and an HP 1050 variable wavelength detector (operated at 235 nm). The chromatographic separations of compounds 1–9 were conducted on an Agilent Zorbax SB-C18 analytical column (4.6 mm × 150 mm, 5 μm) using an isocratic elution of water containing 0.1% formic acid (pH ca. 3.0) and acetonitrile containing 0.1% formic acid with a changing ratio, depending on the compound. The analyses were conducted at room temperature (RT). The detailed procedure of chromatographic analysis was described in our previous paper. The studies were conducted in quadruplicates.
(§4) The protein concentrations in representative wells of each plate were assessed using a Bio-Rad protein assay according to the Bradford method (EnVision, PerkinElmer, Inc., Waltham, MA, USA).

[4] = tested on: MDA-MB-231 cells; experiment: Cellular uptake of metformin sulfonamides in MDA-MB-231 cells (HPLC); format: in vitro ADME, human
Experimental: as §2, §3, §4

[5] = tested on: MCF-7 cells; experiment: Uptake in the presence of OCT and MATE inhibitors, MCF-7 cells; format: in vitro ADME, human; details: for interactions with OCT, PMAT and MATE1 transporters, MCF-7: summary from uptake with inhibitors
Experimental: (§5) The uptake of sulfonamide derivatives of metformin (1–9) in MCF-7 and MDA-MB-231 cells was studied also in the presence of disopyramide, cimetidine (OCT1 and 3 inhibitors), lopinavir (OCT and PMAT inhibitor) and methenamine (MATE and OCT2 inhibitors). The cells were incubated (37 °C, 10 min) with compounds 1–9 at concentrations of 400 and 800 μmol/L and inhibitors (disopyramide, cimetidine, lopinavir or methenamine) in 250 μL of prewarmed HBSS buffer. The protocol of determination of the compound concentration was as described above.

[6] = tested on: MDA-MB-231 cells; experiment: Uptake in the presence of OCT and MATE inhibitors, MDA-MB-231 cells; format: in vitro ADME, human; details: for interactions with OCT, PMAT and MATE1 transporters, MDA-MB-231: summary from uptake with inhibitors
Experimental: as §5

[7] = tested on: MCF-7 cells; experiment: Cell viability WST-1 assay, MCF-7; format: cell-based; details: Homo sapiens, MCF7; WST-1, 24 h, mean ± SD (n = 6–8); read-out: IC50 inhibition of MCF-7 cells' viability
Experimental: (§6) The viability of MCF-7 and MDA-MB-231 cells was determined using a colorimetric WST-1 assay (Takara, Takara Bio Europe, Saint-Germain-en-Laye, France). Both cell lines were seeded at a density of 1 × 10^4 per well on 96-well plates and were cultured for 24 h to obtain 70% confluence. The following day, the cells were treated with various concentrations of compounds 1–9 diluted in the cell culture medium ([…]). The cells were incubated with tested compounds or pure medium (control) for 24 h (37 °C, 5% CO2). Afterwards, the cells were washed with 100 μL of culture medium, and then, the reagent dissolved in the medium was added (100 μL). The plates were incubated at the standard condition for 1.5 h, and the absorbance was read at 450 nm using a microplate reader (iMARK, Bio-Rad, Bio-Rad Laboratories Inc., Hercules, CA, USA). […] The results of samples treated with the test compounds were expressed as a percentage of the control samples. The data were presented as mean ± standard deviation (SD), n = 8. IC50 values (the concentration of the tested compound that inhibited cell growth by 50%) were calculated using a concentration-response curve (GraphPad Prism, Software, San Diego, CA, USA).
(§7) The concentrations contributing to the 50% of cell growth inhibition (IC50) were calculated using nonlinear regression analysis (fitting the curve to log (concentration) vs. cellular response).

[8] = tested on: MDA-MB-231 cells; experiment: Cell viability WST-1 assay, MDA-MB-231; format: cell-based; details: Homo sapiens, MDA-MB-231; WST-1, 24 h, mean ± SD (n = 6–8); read-out: IC50 inhibition of MDA-MB-231 cells' viability
Experimental: as §6, §7

[9] = tested on: HUVECs; parameters: method as in PMID 31776031; details: concentration range 10–3000 µmol/L; read-out: IC50 viability of HUVECs; cited from earlier work
[10] = tested on: AoSMC; parameters: method as in PMID 31776031; details: concentration range 10–3000 µmol/L; read-out: IC50 viability of AoSMCs; cited from earlier work
[11] = Eadie-Hofstee analysis, transporter I
[12] = Eadie-Hofstee analysis, transporter I, read-out: Km, transporter I, MCF-7
[13] = Eadie-Hofstee analysis, transporter II
[14] = Eadie-Hofstee analysis, transporter II, read-out: Km, transporter II, MCF-7
[15] = Michaelis-Menten curve, read-out: Km MCF-7 (Michaelis Menten curves)
[16] = Eadie-Hofstee analysis, transporter I, read-out: Km, transporter I, MDA-MB-231
[17] = Eadie-Hofstee analysis, transporter II, read-out: Km, transporter II, MDA-MB-231
[18] = compound and inhibitor 400 and 800 µmol/L, 10 min, 37 °C

Row | IC50 [2] | uptake into MCF-7 cells ([3]; 800 μmol/L) | uptake in the presence of cimetidine, MCF-7 [5, 18] | uptake in the presence of disopyramide, MCF-7 [5, 18] | uptake in the presence of lopinavir, MCF-7 [5, 18] | interactions with OCT, PMAT and MATE1 transporters, MCF-7 [5] | uptake in the presence of disopyramide, MDA-MB-231 [6, 18] | uptake in the presence of lopinavir, MDA-MB-231 [6, 18] | uptake in the presence of methenamine, MDA-MB-231 [6, 18] | interactions with OCT, PMAT and MATE1 transporters, MDA-MB-231 [6] | SMILES | Vmax, transporter I, MCF-7 [3, 11] | Km [3, 12] | Vmax, transporter II, MCF-7 [3, 13] | Km [3, 14] | Vmax MCF-7 (Michaelis Menten curves) ([3]; Michaelis-Menten curve) | Km [3, 15] | Vmax, transporter I, MDA-MB-231 [4, 11] | Km [4, 16] | Vmax, transporter II, MDA-MB-231 [4, 13] | Km [4, 17] | also measured
1 | 4449 ± 18.1 µM | 2.669 ± 0.040 nmol/min/mg protein | inhibited | profoundly elevated | profoundly elevated | OCT1, OCT3, PMAT | no significant differences | no significant differences | no significant differences | OCT1, OCT3 | CN(C)C(=N)N=C(N)NS(=O)(=O)c1cccc(Cl)c1 [Compound 2] | 19.2 ± 2.31 nmol/min/mg | 4.01 ± 0.696 mM | 24.91 ± 5.44 nmol/min/mg | 7.47 ± 1.82 mM | 34.4 ± 17.2 nmol/min/mg | 9.05 ± 1.52 mM | 0.077 ± 0.008 nmol/min/mg | 2.4 ± 0.353 mM | 0.111 ± 0.016 nmol/min/mg | 5.47 ± 0.73 mM | IC50 [1]: 2923 ± 9.1 µM; uptake in MCF-7 cells relative to metformin ([3]; fold higher than parent drug metformin, 800 μmol/L): approximately 25 fold; Vmax MDA-231 cells (Michaelis Menten curves) ([4]; Michaelis-Menten curve): 0.157 ± 0.129 nmol/min/mg; Km ([4]; Michaelis-Menten curve, read-out: Km MDA-231 cells (Michaelis Menten curves)): 6.75 ± 1.73 mM; uptake in the presence of cimetidine, MDA-MB-231 [6, 18]: no significant differences; IC50 [7]: 533 ± 87.4 µM; IC50 [8]: 844 ± 135 µM
2 | 3760 ± 124 µM | 0.84 ± 0.06 nmol/min/mg protein | did not change | did not change | did not change | OCT1,MATE1 | significantly lower uptake | increased uptake | increased uptake | OCT1, PMAT, MATE1 | CN(C)C(=N)N=C(N)NS(=O)(=O)c1ccc(Cl)cc1 [Compound 3] | 1.61 nmol/min/mg and 1.614 ± 0.11 nmol/min/mg | 0.813 ± 0.0865 mM | 10.76 ± 0.88 nmol/min/mg | 8.81 ± 0.791 mM | 5.073 ± 1.96 nmol/min/mg | 3.58 ± 1.71 mM | 1.390 ± 0.23 nmol/min/mg | 2.37 ± 0.48 mM | 2.20 ± 0.41 nmol/min/mg | 4.67 ± 0.932 mM | uptake into MDA-MB-231 cells ([4]; 800 μmol/L, 10 min incubation, 37 °C): 0.42 ± 0.15 nmol/min/mg protein; transport efficacy (Vmax/Km) in MCF-7 relative to MDA-MB-231 ([4]; fold lower in MDA-MB-231 than in MCF-7): 2.4–3.2 fold; uptake in the presence of methenamine, MCF-7 [5, 18]: significant decrease; IC50 [7]: 1430 ± 135 µM; IC50 [8]: 1040 ± 134 µM; IC50 [9]: 1770 ± 120 µM; IC50 [10]: 1890 ± 110 µM
